Experimental data reported in patent publication US20060252744A1 (priority 2005, published 2006).
Where two headings read alike, the source gives them in different places.

Key:
[1] = steady state kinetics in humans given clozapine; cited from earlier work
[2] = target: human D2 dopamine receptor (Homo sapiens, UniProt P14416); assay: R-SAT functional receptor assay, D2 receptor co-expressed with Gαo; settings: for activity at 1 µM: read-out: D2 basal (basal response, no drug = 100%); for Emax: read-out: % basal response (D2 intrinsic activity)
human D2 dopamine receptor, sequence (P14416 whole entry): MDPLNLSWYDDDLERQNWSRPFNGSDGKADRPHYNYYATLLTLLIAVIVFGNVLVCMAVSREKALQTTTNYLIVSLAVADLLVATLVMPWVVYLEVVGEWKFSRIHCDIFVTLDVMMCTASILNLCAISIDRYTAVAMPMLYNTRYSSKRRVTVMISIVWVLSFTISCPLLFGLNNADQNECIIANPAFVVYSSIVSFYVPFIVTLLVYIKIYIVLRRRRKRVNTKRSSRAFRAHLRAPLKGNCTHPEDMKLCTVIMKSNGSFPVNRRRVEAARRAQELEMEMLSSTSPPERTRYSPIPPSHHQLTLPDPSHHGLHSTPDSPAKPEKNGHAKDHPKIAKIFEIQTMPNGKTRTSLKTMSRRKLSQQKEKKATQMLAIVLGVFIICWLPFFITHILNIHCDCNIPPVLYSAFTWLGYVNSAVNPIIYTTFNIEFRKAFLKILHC

[3] = target: human D3 dopamine receptor (Homo sapiens, UniProt P35462); assay: R-SAT functional receptor assay, D3 receptor co-expressed with Gαo; settings: for activity at 1 µM: read-out: D3 basal (basal response, no drug = 100%)
human D3 dopamine receptor, sequence (P35462 whole entry): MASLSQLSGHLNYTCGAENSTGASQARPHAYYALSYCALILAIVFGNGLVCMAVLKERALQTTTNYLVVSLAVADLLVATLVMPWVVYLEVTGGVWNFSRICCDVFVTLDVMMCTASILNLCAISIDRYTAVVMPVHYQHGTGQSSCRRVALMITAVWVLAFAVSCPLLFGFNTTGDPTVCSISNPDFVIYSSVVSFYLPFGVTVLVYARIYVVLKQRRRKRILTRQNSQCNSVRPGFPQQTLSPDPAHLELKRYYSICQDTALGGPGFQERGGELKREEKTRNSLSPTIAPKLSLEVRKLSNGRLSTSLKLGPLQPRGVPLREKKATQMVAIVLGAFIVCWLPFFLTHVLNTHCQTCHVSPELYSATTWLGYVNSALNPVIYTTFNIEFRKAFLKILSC

human D2 receptors = target: T1, human D2 receptors (Homo sapiens, UniProt P14416); assay: competitive radioligand D2 binding assay, (Methoxy-3H)-raclopride, membranes of transfected HEK-293T cells; settings: mean of one or two experiments; butaclamol as control
T1 construct: expressed in transfected cells; host or cells: HEK-293T
T1 sequence (P14416 whole entry): as the sequence (P14416 whole entry) above

[4] = compounds at 1 μM, mean +/− standard error, R-SAT

For `Clc1ccc2c(c1)N=C(N1CCNCC1)c1ccccc1N2` [N-desmethylclozapine, 8-chloro-11-(1-piperazinyl)-5H-dibenzo[b,e][1,4]diazepine], the “share of NDMC in total serum clozapine concentrations” value [1] is given as 40-75%, the EC50 [2] is given as 31.6 nM and the “intrinsic activity at D2 receptor (in words)” value ([2]; R-SAT) is given as “partial agonist”. The “relative efficacy to pergolide at D2” value ([2]; R-SAT) was 34%, the “D2 basal (basal response, no drug = 100%)” value [2, 4] was 229 +/− 21% and the EC50 [3] was 100 nM. For the same molecule, the “intrinsic activity at D3 receptor (in words)” value ([3]; R-SAT) was “partial agonist”, the “relative efficacy to pergolide at D3” value ([3]; R-SAT) was 40% and the activity at 1 µM [3] was 188%.

`CN1CCN(CC/C=C2/c3ccccc3Sc3ccc(S(=O)(=O)N(C)C)cc32)CC1` [thiothixene] gave an activity at 1 µM [2] of 73% and an activity at 1 µM [3] of 68%.

In the case of `Cc1ccc(C2(O)CCN(CCCC(=O)c3ccc(F)cc3)CC2)cc1` [moperone], the activity at 1 µM [2] is reported as 64% and the activity at 1 µM [3] is reported as 52%.

`Brc1ccc2c(c1)N=C(N1CCNCC1)c1ccccc1N2` gave a Ki (human D2 receptors) of 158 nM and an Emax [2] of 147%.

With `OCCN1CCN(CC/C=C2\c3ccccc3Sc3ccc(C(F)(F)F)cc32)CC1` [trans-(e)-flupenthixol] the “D2 basal (basal response, no drug = 100%)” value [2] was 68 +/− 4%.

For `O=C(CCCN1CCC2(CC1)C(=O)NCN2c1ccccc1)c1ccc(F)cc1` [spiperone], the “D2 basal (basal response, no drug = 100%)” value [2] was 51 +/− 1%.

`CC1CCN(CCCC(=O)c2ccc(F)cc2)CC1` [melperone] showed an activity at 1 µM [2] of 76% and an activity at 1 µM [3] of 75%.

Work on `Clc1ccc2c(c1)N=C(N1CCCNCC1)c1ccccc1N2` yielded a Ki (human D2 receptors) of 2000 nM and an Emax [2] of 172%.

Work on `CCN(CC)CCNC(=O)c1cc(S(C)(=O)=O)ccc1OC` [tiapride] yielded an activity at 1 µM [2] of 65% and an activity at 1 µM [3] of 57%.

In the case of `Cc1cccc2c1Oc1ccc(F)cc1N=C2N1CCNCC1`, the Ki (human D2 receptors) is reported as 316 nM and the Emax [2] is reported as 126%.

In the case of `OCCN1CCN([C@@H]2C[C@@H](c3ccc(F)cc3)c3ccc(C(F)(F)F)cc32)CC1` (racemic) [tefludazine], the activity at 1 µM [2] is reported as 67% and the activity at 1 µM [3] is reported as 47%.

With `OCCN1CCN(CCCN2c3ccccc3Sc3ccc(C(F)(F)F)cc32)CC1` [fluphenazine] the activity at 1 µM [2] was 61% and the activity at 1 µM [3] was 55%.

Molecule `Fc1ccc2c(c1)N=C(N1CCNCC1)c1ccccc1N2` has a Ki (human D2 receptors) of 2510 nM and an Emax [2] of 170%.

In the case of `CN1CCN(CCCN2c3ccccc3Sc3ccc(Cl)cc32)CC1` [prochlorperazine], the activity at 1 µM [2] is reported as 57% and the activity at 1 µM [3] is reported as 53%.

`O=c1[nH]c2ccccc2n1C1CCN(CCCC(c2ccc(F)cc2)c2ccc(F)cc2)CC1` [pimozide] gave an activity at 1 µM [2] of 43% and an activity at 1 µM [3] of 54%.

`CSc1ccc2c(c1)N(CCC1CCCCN1C)c1ccccc1S2` (stereo not shown) [thioridazine] showed an activity at 1 µM [2] of 81% and an activity at 1 µM [3] of 81%.

For `OCCN1CCN(CC/C=C2/c3ccccc3Sc3ccc(C(F)(F)F)cc32)CC1` [cis-flupenthixol], the “D2 basal (basal response, no drug = 100%)” value [2] was 59 +/− 4%.

For `CCc1c(C)[nH]c2c1C(=O)C(CN1CCOCC1)CC2` (stereo not shown) [molindone], the activity at 1 µM [2] was 70% and the activity at 1 µM [3] was 65%.

Molecule `Brc1ccc2c(c1)N=C(N1CCNCC1)c1ccccc1O2` has a Ki (human D2 receptors) of 126 nM and an Emax [2] of 155%.

In the case of `N#Cc1ccc2c(c1)N=C(N1CCNCC1)c1ccccc1N2`, the Ki (human D2 receptors) is reported as 5010 nM and the Emax [2] is reported as 201%.

In the case of `Brc1ccc2c(c1)N=C(N1CCNCC1)CCN2`, the Emax [2] is reported as 142%.

With `CCN1CCC[C@H]1CNC(=O)c1c(O)c(Cl)cc(Cl)c1OC` (racemic) [S(−)-raclopride] the “D2 basal (basal response, no drug = 100%)” value [2, 4] was 60− % and the “D3 basal (basal response, no drug = 100%)” value [3, 4] was 56− %.

Molecule `Cc1cccc2c1Oc1ccc(Cl)cc1N=C2N1CCNCC1` has a Ki (human D2 receptors) of 316 nM and an Emax [2] of 106%.

Work on `Clc1ccc2c(c1)N=C(N1CCNCC1)c1ccccc1O2` yielded a Ki (human D2 receptors) of 251 nM and an Emax [2] of 150%.

With `O=C1Cc2cc(CCN3CCN(c4nsc5ccccc45)CC3)c(Cl)cc2N1` [ziprasidone] the “D2 basal (basal response, no drug = 100%)” value [2, 4] was 66 +/− 8%.

With `CCN(CC)CCCN1c2ccccc2Sc2ccc(Cl)cc21` [chlorproethazine] the “D2 basal (basal response, no drug = 100%)” value [2, 4] was 60 +/− 7% and the “D3 basal (basal response, no drug = 100%)” value [3, 4] was 63 +/− 10%.

With `CN1CCN(C2Cc3ccccc3Sc3ccc(Cl)cc32)CC1.O=C(O)/C=C\C(=O)O` (stereo not shown) [octoclothepin] the “D3 basal (basal response, no drug = 100%)” value [3] was 60 +/− 8%.

With `Cc1nc2n(c(=O)c1CCN1CCC(c3noc4cc(F)ccc34)CC1)CCCC2` [risperidone] the “D2 basal (basal response, no drug = 100%)” value [2] was 63 +/− 2%.

In the case of `CC(C)(C)[C@]1(O)CCN2C[C@H]3c4ccccc4CCc4cccc(c43)[C@@H]2C1` [butaclamol], the “D2 basal (basal response, no drug = 100%)” value [2, 4] is reported as 60 +/− 2%.

Molecule `O=C1NCN(c2ccccc2)C12CCN(CCCC(c1ccc(F)cc1)c1ccc(F)cc1)CC2` [fluspirilene] has an activity at 1 µM [2] of 52% and an activity at 1 µM [3] of 45%.

Work on `CN(C)CCCN1c2ccccc2Sc2ccccc21` [promazine] yielded an activity at 1 µM [2] of 76% and an activity at 1 µM [3] of 83%.

For `Cc1cc2c(s1)Nc1ccccc1N=C2N1CCN(C)CC1` [olanzapine], the “D2 basal (basal response, no drug = 100%)” value [2] was 83 +/− 6% and the “D3 basal (basal response, no drug = 100%)” value [3, 4] was 83 +/− 6%.

`Fc1ccc2c(c1)N=C(N1CCNCC1)c1ccccc1O2` gave a Ki (human D2 receptors) of 501 nM and an Emax [2] of 207%.

For `Clc1ccc2c(c1)N=C(NC[C@@H]1CCCN1)c1ccccc1N2`, the Ki (human D2 receptors) was 1580 nM and the Emax [2] was 105%.

`O=C(CCCN1CCC(O)(c2cccc(C(F)(F)F)c2)CC1)c1ccc(F)cc1` [trifluperidol] showed an activity at 1 µM [2] of 58% and an activity at 1 µM [3] of 54%.

With `CN1CCN(C2=Nc3ccccc3Cc3ccccc32)CC1` [perlapine] the activity at 1 µM [2] was 58% and the activity at 1 µM [3] was 74%.

With `CCN1CCCC1CNC(=O)c1cc(S(N)(=O)=O)ccc1OC` (stereo not shown) [sulpiride] the activity at 1 µM [2] was 59% and the “D3 basal (basal response, no drug = 100%)” value [3, 4] was 55 +/− 9%.

In the case of `Cc1cccc2c1Nc1ccc(Cl)cc1N=C2N1CCNCC1`, the Ki (human D2 receptors) is reported as 6310 nM and the Emax [2] is reported as 102%.

For `Clc1ccc2c(c1)N=C(N1CCNCC1)c1ccccc1C2`, the Ki (human D2 receptors) was 12.6 nM and the Emax [2] was 260%.

In the case of `CN1CCN(CCCN2c3ccccc3Sc3ccc(C(F)(F)F)cc32)CC1` [trifluoperazine], the activity at 1 µM [2] is reported as 58%.

In the case of `Cc1cccc2c1Oc1ccc(C(F)(F)F)cc1N=C2N1CCNCC1`, the Ki (human D2 receptors) is reported as 2510 nM and the Emax [2] is reported as 118%.

`Clc1ccc2c(c1)N=C(N1CC3CC1CN3)c1ccccc1N2` (stereo not shown) gave a Ki (human D2 receptors) of 2510 nM and an Emax [2] of 116%.

`Cc1cccc2c1Oc1ccc(Br)cc1N=C2N1CCNCC1` showed a Ki (human D2 receptors) of 794 nM and an Emax [2] of 112%.

`O=C1NCCN1CCN1CCC(c2cn(-c3ccc(F)cc3)c3ccc(Cl)cc23)CC1` [sertindole] showed an activity at 1 µM [2] of 61%.

In the case of `Cc1nc2c(C)cccn2c(=O)c1CCN1CCC(c2noc3cc(F)ccc23)CC1` [ocaperiodone], the “D2 basal (basal response, no drug = 100%)” value [2, 4] is reported as 62 +/− 8% and the “D3 basal (basal response, no drug = 100%)” value [3, 4] is reported as 51 +/− 10%.

`O=C(CCCN1CCC(O)(c2ccc(Br)cc2)CC1)c1ccc(F)cc1` [bromperidol] gave an activity at 1 µM [2] of 46% and an activity at 1 µM [3] of 43%.

`CN1c2ccc(Cl)cc2N=C(N2CCNCC2)c2ccccc21` showed a Ki (human D2 receptors) of 794 nM and an Emax [2] of 141%.
